According to ChEMBL document CHEMBL1201862, “PubChem BioAssay data set” (2004):
Activity calls are given as the source filed them.

What was measured:
Estrogen receptor beta = Estrogen receptor beta (Homo sapiens, UniProt Q92731);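 also: recombinant ER-beta bound to coactivator SRC1 peptide in presence of estradiol agonist; inhibitors block coactivator peptide binding and lower the FRET signal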
Estrogen receptor = target: T1, Estrogen receptor (Homo sapiens, UniProt P03372);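 also: potency for inhibiting coactivator peptide recruitment to the receptor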
T1 sequence (P03372 whole entry): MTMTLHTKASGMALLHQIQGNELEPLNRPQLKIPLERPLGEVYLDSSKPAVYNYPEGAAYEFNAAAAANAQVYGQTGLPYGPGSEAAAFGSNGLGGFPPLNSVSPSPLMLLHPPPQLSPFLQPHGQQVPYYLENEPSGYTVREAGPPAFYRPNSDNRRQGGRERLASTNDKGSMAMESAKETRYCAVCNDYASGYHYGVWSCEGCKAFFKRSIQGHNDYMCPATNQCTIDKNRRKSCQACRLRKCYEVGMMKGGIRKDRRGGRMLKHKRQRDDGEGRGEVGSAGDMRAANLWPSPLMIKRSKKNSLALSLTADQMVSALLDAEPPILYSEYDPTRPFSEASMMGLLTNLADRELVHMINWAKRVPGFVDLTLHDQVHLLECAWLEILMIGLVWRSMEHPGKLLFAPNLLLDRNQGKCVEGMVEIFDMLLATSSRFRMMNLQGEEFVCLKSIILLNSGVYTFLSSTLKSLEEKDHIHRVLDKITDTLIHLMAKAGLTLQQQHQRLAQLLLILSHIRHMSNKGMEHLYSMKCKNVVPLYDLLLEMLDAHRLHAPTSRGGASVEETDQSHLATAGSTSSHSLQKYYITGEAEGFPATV

[1] = viability of uninfected HEp-2 cells – cell-based, HTS, cytotoxicity control for RSV inhibitor project, dose response (AID 2410); assay type: functional; settings: human respiratory syncytial virus
[2] = target: T2, Corticotropin-releasing factor receptor 2/Corticotropin-releasing factor-binding protein (Homo sapiens, UniProt P24387+Q13324); assay: activators of CRF receptor 2 with binding protein – uHTS hits, confirmation (AID 602473); assay type: functional; settings: read-out: EC50_Mean
T2 sequence (Q13324 whole entry): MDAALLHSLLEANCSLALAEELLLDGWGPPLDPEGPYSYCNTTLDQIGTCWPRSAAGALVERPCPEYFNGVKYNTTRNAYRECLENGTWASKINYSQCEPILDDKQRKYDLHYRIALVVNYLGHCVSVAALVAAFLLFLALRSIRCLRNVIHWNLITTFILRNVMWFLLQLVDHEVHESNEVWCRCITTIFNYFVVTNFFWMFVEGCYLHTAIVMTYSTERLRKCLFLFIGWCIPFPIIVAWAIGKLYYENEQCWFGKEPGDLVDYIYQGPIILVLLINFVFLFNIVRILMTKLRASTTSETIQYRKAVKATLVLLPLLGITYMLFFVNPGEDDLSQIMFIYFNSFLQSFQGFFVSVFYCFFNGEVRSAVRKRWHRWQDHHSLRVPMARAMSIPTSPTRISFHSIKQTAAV
T2 sequence (P24387 whole entry): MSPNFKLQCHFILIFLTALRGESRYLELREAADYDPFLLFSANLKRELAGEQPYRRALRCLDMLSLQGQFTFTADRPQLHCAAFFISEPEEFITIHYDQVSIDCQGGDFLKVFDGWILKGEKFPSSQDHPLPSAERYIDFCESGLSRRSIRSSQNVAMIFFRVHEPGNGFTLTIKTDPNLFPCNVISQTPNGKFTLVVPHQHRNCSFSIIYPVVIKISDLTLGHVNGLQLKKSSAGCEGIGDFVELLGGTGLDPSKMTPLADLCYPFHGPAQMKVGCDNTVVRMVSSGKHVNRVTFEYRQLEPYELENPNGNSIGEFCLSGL

[3] = microbe, parasite or virus in culture; assay type: functional; settings: Mycobacterium tuberculosis
[4] = M. tuberculosis growth inhibition, HTS (AID 449762); assay type: functional
[5] = target: T2, Corticotropin-releasing factor receptor 2/Corticotropin-releasing factor-binding protein; assay: Dose Response confirmation of uHTS hits for small molecule antagonists of the CRF-binding protein and CRF-R2 receptor complex.; assay type: functional; settings: read-out: IC50_Mean

Sequence of Estrogen receptor beta (Q92731 whole entry): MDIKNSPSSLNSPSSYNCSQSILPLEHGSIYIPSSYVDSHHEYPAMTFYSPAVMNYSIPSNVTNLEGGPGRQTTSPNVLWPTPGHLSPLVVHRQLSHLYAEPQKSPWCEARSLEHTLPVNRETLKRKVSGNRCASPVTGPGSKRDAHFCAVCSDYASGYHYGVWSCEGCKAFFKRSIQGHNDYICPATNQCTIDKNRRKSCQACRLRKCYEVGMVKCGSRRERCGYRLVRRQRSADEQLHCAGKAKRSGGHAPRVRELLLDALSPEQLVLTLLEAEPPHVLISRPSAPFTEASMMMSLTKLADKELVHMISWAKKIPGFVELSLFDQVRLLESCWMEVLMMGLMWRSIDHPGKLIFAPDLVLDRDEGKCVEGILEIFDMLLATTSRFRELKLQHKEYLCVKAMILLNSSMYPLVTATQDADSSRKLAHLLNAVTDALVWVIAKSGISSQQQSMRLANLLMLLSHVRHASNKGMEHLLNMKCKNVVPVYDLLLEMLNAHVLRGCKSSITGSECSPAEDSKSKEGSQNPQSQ

Compound | IC50 (Estrogen receptor beta) | IC50 (Estrogen receptor) | CC50 [1] | EC50 [2] | CC50 [3] | IC50 [4] | IC50 [5]
Cn1nc([N+](=O)[O-])c2c(-c3nc4ccccc4s3)c(N)n(C3CCCCC3)c2c1=O | 6.01 µM (active) | 4.98 µM (active) | – | – | – | – | –
Cc1nn(-c2ccccc2)c(N2CCCC2)c1/C=N/Nc1ccc(S(N)(=O)=O)cc1[N+](=O)[O-] | – | – | 33.2 µM (active) | > 53 µM (inactive) | > 40 µM (active) | > 100 µM (active) | > 47.1 µM (inactive)
